Results taken from US20240217946A1, “ANTIDEPRESSANT AND ANXIOLYTIC SUBSTITUTED CINNAMAMIDE COMPOUND” (TASLY PHARMACEUTICAL GROUP CO., LTD., priority 2021, published 2024).

Columns and labels:
mice = conditions: Patent C; cited from earlier work
[1] = system: pyramidal neurons in prefrontal PrL brain area; experiment: Brain slice electrophysiology, sEPSC of mPFC pyramidal neurons; assay type: cell-based, mice; conditions: 10 nM, 10 μM, 150 μM; for sEPSC distribution frequency: concentration-dependent, significant at 150 μM
Text: 2) Brain Slice Electrophysiological Experiment: For Detecting Effect of Compound M2 on mPFC Excitatory Synaptic Transmission • Animal: neonatal mice C57 BL/6J (20-30 days). • Instrument: vibratome (Leica), brain slice electrophysiological system (Axon). • Brain slice electrophysiological experiment method • SEPSC experiment method: Neonatal C57 mice were anesthetized and then perfused with artificial cerebrospinal fluid (ACSF). After decapitation, brain tissue was taken quickly and sliced by vibratome, with a thickness of a brain slice being 300 μm. After the brain slices were incubated at 28 °C for 1 h, whole-cell recordings of mPFC pyramidal neurons were made using a voltage clamp (−70 mV) through a brain slice electrophysiological system. The baseline recording time was 6 min, and then a drug to be tested was added through a perfusion system (the drug was dissolved using ACSF), and the recording time after adding the drug was 6-10 min. Recorded data was analyzed using Minianalysis software, and effects of the drug to be tested on sEPSC frequency and amplitude of medial prefrontal pyramidal neurons in C57 mice were compared.
All data analysis was done using spss data processing software, and data was expressed by Mean±s.e.m. One-way ANOVA was used to analyze the effect of compound M2 and the effect of compound M2 under the action of dopamine receptor antagonists on sEPSC current: and paired t test was used to analyze sEPSC experimental results. * was marked when p<0.05.
During the experiment, 10 μM Bicuculine was added to the solution to block GABA receptor, so as to record sEPSC of pyramidal neurons. The experiment investigated effects of different concentrations of compound M2 on spontaneous excitatory postsynaptic […] (sEPSC) of pyramidal neurons in prefrontal PrL brain area, as shown in FIG. 2.

mTOR signaling pathway = experiment: Western blot of prefrontal proteins after single administration; assay type: in vivo, mice; conditions: 30 mg/kg
Method: 3) Western Blot: For Detecting Effect of Compound M2 on a Change in mPFC Protein Content • Animals: C57 BL/6J male mice (18-20 g), divided into four groups, i.e. the control group, fluoxetine group, compound M2 (30 mg/kg) group, and esketamine group. • Primary antibodies for experimental use
0.5 h/24 h after administration of C57 mice, brain tissue was sampled from the prefrontal brain area. After tissue samples were lysed and homogenized, quantification of proteins was performed using the BCA method, and changes in protein content in the prefrontal brain area 0.5 h/24 h after intraperitoneal administration of compound M2 were detected by steps of SDS-PAGE gel preparation, sample loading and electrophoresis, membrane transfer, sealing, primary antibody incubation, secondary antibody incubation, protein detection (development and fixation), etc.

Structure (SMILES): CC(C)CNC(=O)/C=C/c1cc2c(c(C(F)(F)F)c1)OCO2 [Compound I-5]
- effective anxiolytic dosage in mice elevated plus maze experiment (mice): 10 mg/kg

Structure (SMILES): NC(=O)/C=C/c1cc2c(c(C(F)(F)F)c1)OCO2 [Compound M2]
- sEPSC distribution amplitude [1]: did not have significant effect
- sEPSC distribution frequency [1]: increased
- sEPSC distribution frequency ([1]; listed as compound M2): significantly enhance
- sEPSC distribution amplitude ([1]; listed as compound M2): does not have a significant effect
- medial prefrontal p-TrkB content (mTOR signaling pathway; 0.5 h after administration): increased
- medial prefrontal p-mTOR content (mTOR signaling pathway; 0.5 h after administration): increased
- total content (mTOR, TrkB) (mTOR signaling pathway; 0.5 h after administration): remaining unchanged
- content of medial prefrontal synaptogenesis-related protein PSD95 (mTOR signaling pathway; 24 h after single administration): significantly increased
